pKi: −log10 of the molar value. Where two headings read alike, the source gives them in different places.
Assays:
rEP3 receptor = molecular target: T1, rEP3 receptor (UniProt P34980); experiment: Competitive binding assay of [3H]PGE2 to rEP3 receptor; details: [3H]-PGE2 competitive binding, membranes of stably transfected cells, pH 7.4, 60 minutes at 30° C.; read-out: EP3, Ki
T1 sequence (P34980 1-365): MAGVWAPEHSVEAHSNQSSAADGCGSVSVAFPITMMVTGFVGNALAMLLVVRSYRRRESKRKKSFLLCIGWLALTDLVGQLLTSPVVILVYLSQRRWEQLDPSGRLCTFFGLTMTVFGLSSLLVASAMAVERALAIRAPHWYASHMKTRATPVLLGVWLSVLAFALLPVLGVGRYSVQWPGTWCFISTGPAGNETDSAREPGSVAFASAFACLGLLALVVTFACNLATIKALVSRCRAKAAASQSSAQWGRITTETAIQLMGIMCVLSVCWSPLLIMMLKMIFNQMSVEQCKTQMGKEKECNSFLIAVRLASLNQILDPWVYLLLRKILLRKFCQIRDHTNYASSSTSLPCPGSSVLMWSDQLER
Description: (§1) Competitive Binding Assay of [^3H]PGE2 to rEP1, rEP2, rEP3 and rEP4 Receptor
(§2) Stably transfected cells expressing EP3 were grown in F-12 media (GIBCO) supplemented with 10% heat inactivated certified Fetal Bovine Serum (GIBCO) and pelleted. Prostanoid receptor EP2 or EP4 cDNA corresponding to the full-length coding sequence was subcloned into the appropriate sites of the mammalian expresson vector pcDNA 3.1(+)/Zeo (Invitrogen). Transfection-scale quantities of the vector were prepared using the Qiagen Endo-Free Plasmid Maxi Kit and transfected into COS-7 cells using FuGene 6 (Roche Molecular) according to the manufacturer's instructions (Roche). COS-7 cells were grown in DMEM (GIBCO) supplemented with 10% heat inactivated certified Fetal Bovine Serum (GIBCO) and Gentamicin (GIBCO), and were harvested 72 hours after transfection. Cells were pelleted by centrifugation, washed with PBS (GIBCO), repelleted, then flash-frozen in dry-ice/Ethanol or used directly for membrane preparation.
(§3) All procedures for membrane preparation were performed at 4° C. Prostanoid receptor-transfected COS-7 cells or stably transfected CHO cells were homogenized in assay buffers (see recipe, below) using a Polytron homogenizer (Brinkman) and centrifuged at 48,000×g for 30 minutes. Pellets were resuspended in assay buffer and resuspended by sonication using a Branson sonifier. Protein concentration was determined using the BioRad DC Protein Assay following the manufacturer's directions and stored at −80° C.
Methods for competitive affinity binding assays of EP2, EP3 and EP4 were derived from those described in M. Abramovitz et al, “The utilization of recombinant prostanoid receptors to determine the affinities and selectivities of prostaglandins and related analogs” Biochimica et Biophysica Acta 1483 (2000) 285-293. Binding assays were performed in a final incubation volume of 0.2 mL in the following assay buffers: 20 mM HEPES, 1 mM EDTA, and 10 mM MgCl2 (pH 7.4) (EP3) or 10 mM MES, 10 mM MnCl2, and 1 mM EDTA_(pH to 6.0 with NaOH) (EP2 and EP4) and radioligand {2.25 nM (EP3) or 2.5 nM (EP2) [^3H]-PGE2 (200 Ci/mmol, NEN)}. […] Non-specific binding was determined in the presence of 10 µM of non-radioactive PGE2 (Cayman Chemical). […] The filters were washed with 3-4 mL of wash buffer (20 mM HEPES pH 7.4 for EP3, 10 mM MES, 0.01% BSA, pH 6.0 for EP2 and EP4), dried for at least 1 hour at room temperature, and the residual radioactivity bound to the individual filters determined by scintillation counting with addition of 37.5 uL of Microscint 20 (Packard) using a Packard TopCount Microplate Scintillation Counter. Statistics of binding were determined using Prism v 3.0 software (GraphPad).

rEP4 receptor = rEP4 receptor (UniProt P43114); experiment: Competitive binding assay of [3H]PGE2 to rEP4 receptor
Description: as §1, §2, §3
Reactions were initiated by addition of membrane protein (approximately 50 ug/reaction for EP3, 100 ug for EP2 and EP4). Dimethylsulfoxide (Sigma) concentration was kept constant at 1% (v/v) in all incubations, and compounds were assayed at final concentrations of 100 uM-0.3 nM. Non-specific binding was determined in the presence of 10 µM of non-radioactive PGE2 (Cayman Chemical). Incubations were conducted for 60 minutes at 30° C. (EP3) or 45 minutes at 23° C. (EP2 and EP4). […] The filters were washed with 3-4 mL of wash buffer (20 mM HEPES pH 7.4 for EP3, 10 mM MES, 0.01% BSA, pH 6.0 for EP2 and EP4), dried for at least 1 hour at room temperature, and the residual radioactivity bound to the individual filters determined by scintillation counting with addition of 37.5 uL of Microscint 20 (Packard) using a Packard TopCount Microplate Scintillation Counter. Statistics of binding were determined using Prism v 3.0 software (GraphPad).

rEP2 receptor = rEP2 receptor (UniProt Q62928); experiment: Competitive binding assay of [3H]PGE2 to rEP2 receptor; details: [3H]-PGE2 competitive binding, membranes of transfected COS-7 cells, pH 6.0, 45 minutes at 23° C.; read-out: EP2, Ki
Description: as §1, §2, §3
Methods for competitive affinity binding assays of EP2, EP3 and EP4 were derived from those described in M. Abramovitz et al, “The utilization of recombinant prostanoid receptors to determine the affinities and selectivities of prostaglandins and related analogs” Biochimica et Biophysica Acta 1483 (2000) 285-293. Binding assays were performed in a final incubation volume of 0.2 mL in the following assay buffers: 20 mM HEPES, 1 mM EDTA, and 10 mM MgCl2 (pH 7.4) (EP3) or 10 mM MES, 10 mM MnCl2, and 1 mM EDTA_(pH to 6.0 with NaOH) (EP2 and EP4) and radioligand {2.25 nM (EP3) or 2.5 nM (EP2) [^3H]-PGE2 (200 Ci/mmol, NEN)}. Reactions were initiated by addition of membrane protein (approximately 50 ug/reaction for EP3, 100 ug for EP2 and EP4). Dimethylsulfoxide (Sigma) concentration was kept constant at 1% (v/v) in all incubations, and compounds were assayed at final concentrations of 100 uM-0.3 nM. Non-specific binding was determined in the presence of 10 µM of non-radioactive PGE2 (Cayman Chemical). Incubations were conducted for 60 minutes at 30° C. (EP3) or 45 minutes at 23° C. (EP2 and EP4). Incubations were terminated by rapid filtration through a 96-well Unifilter GF/B (Packard) (prewetted in 10 mM MES, 0.01% BSA, pH 6.0 for EP2) at 4° C. using a Filtermate 196 96-well semi-automated cell harvester (Packard). The filters were washed with 3-4 mL of wash buffer (20 mM HEPES pH 7.4 for EP3, 10 mM MES, 0.01% BSA, pH 6.0 for EP2 and EP4), dried for at least 1 hour at room temperature, and the residual radioactivity bound to the individual filters determined by scintillation counting with addition of 37.5 uL of Microscint 20 (Packard) using a Packard TopCount Microplate Scintillation Counter. Statistics of binding were determined using Prism v 3.0 software (GraphPad).

[1] = [3H]-PGE2 competitive binding, membranes of transfected COS-7 cells, pH 6.0, 45 minutes at 23° C.; read-out: EP4, Ki

SMILES | pKi (rEP3 receptor) | pKi (rEP4 receptor; read-out: EP4, Ki; [3H]-PGE2 competitive binding, membranes of transfected COS-7 cells, pH 6.0, 45 minutes at 23° C.) | pKi (rEP2 receptor) | pKi (rEP4 receptor; [1])
O=C(O)COCCCCN1C(=O)CC[C@@H]1/C=C/[C@@H](O)Cc1cccc(C(F)(F)F)c1 [Compound 10, (4-{(R)-2-[(S)-(E)-3-hydroxy-4-(3-trifluoromethyl-phenyl)-but-1-enyl]-5-oxo-pyrrolidin-1-yl}-butoxy)-acetic acid] | < 5.00 | 8.15 | 4.18 | 
O=C(O)CCCSCCN1C(=O)CC[C@@H]1CC[C@@H](O)c1cccc(Oc2cccc(F)c2)c1 [Compound 15, 4-[2-((S)-2-{(R)-3-[3-(3-Fluoro-phenoxy)-phenyl]-3-hydroxy-propyl}-5-oxo-pyrrolidin-1-yl)-ethylsulfanyl]-butyric Acid] | 4.31 |  | 5.11 | 8.10
CCCCCC(C)(O)/C=C/[C@H]1CCC(=O)N1CCSCCCC(=O)O (stereo partly drawn) [Compound 14, 4-{2-[(R)-2-((E)-3-hydroxy-3-methyl-oct-1-enyl)-5-oxo-pyrrolidin-1-yl]-ethylsulfanyl}-butyric acid] |  |  | 4.74 | 7.05
CCCCC[C@H](O)/C=C/C1CCC(=O)N1OCCCCCC(=O)O (stereo partly drawn) [Compound 28, 6-[2-((S)-(E)-3-Hydroxy-oct-1-enyl)-5-oxo-pyrrolidin-1-yloxy]-hexanoic acid] | < 5.00 |  | < 5.00 | 7.22
CCCCCC(O)/C=C/[C@H]1CCC(=O)N1C/C=C\COCC(=O)O (stereo partly drawn) [Compound 8, {(Z)-4-[(R)-2-((E)-3-hydroxy-oct-1-enyl)-5-oxo-pyrrolidin-1-yl]-but-2-enyloxy}-acetic acid] |  |  | < 5.00 | 
CCCCC[C@H](O)/C=C/[C@H]1CCC(=O)N1CCSCCCC(=O)O [Compound 1, 4-[(2-{(2R)-2-[(1E,3S)-3-hydroxyoct-1-enyl]-5-oxopyrrolidin-1-yl}ethyl)thio]butanoic acid] | 5.59 |  | 5.80 | 8.30
